From patent publication US11129840B2, “Methods for identifying novel dosing regimens” (Zavante Therapeutics, Inc., priority 2017, dated 2021)
Values after ≈ are worked out from the molar mass of the structure shown.

Experiments:
Enterobacteriaceae [1] = assay: MIC distribution for 1,091 Enterobacteriaceae isolates from USA; assay type: cell-based
[2] = test system: K. pneumoniae (KPC-producer) isolate; assay: Time-kill kinetic analysis; assay type: cell-based, Klebsiella pneumoniae
Method: TKK were sampled for colony counts at T0, T2, T4, T8 and T24 hours (h). Two Klebsiella pneumoniae isolates (one KPC and one ESBL), two Pseudomonas aeruginosa isolates (non-MDR), and one Acinetobacter baumannii isolate (MDR) were tested.

[3] = test system: Acinetobacter-baumannii-calcoaceticus complex; assay: Reference agar dilution MIC, SENTRY US isolates; assay type: cell-based
Method: (§1) FOS was tested against over 1,400 GN and 800 GP clinical isolates collected in US medical centers as part of the SENTRY Antimicrobial Surveillance Program (96% of isolates from 2015) and a selection of 29 GN and 20 GP anaerobes. Isolates were susceptibility (S) tested against FOS and comparators by reference agar dilution (25 μg/mL glucose-6-phosphate supplementation) using existing FDA breakpoints of the oral formulation for comparative assessments.

E. faecalis = assay: Reference agar dilution MIC, SENTRY US isolates; assay type: cell-based; settings: FDA oral breakpoints
Method: as §1

Klebsiella pneumoniae = assay: Reference agar dilution MIC, SENTRY US isolates; assay type: cell-based
Method: as §1

Enterobacter aerogenes = assay: Reference agar dilution MIC, SENTRY US isolates; assay type: cell-based; settings: Klebsiella aerogenes; randomly selected
Method: as §1

Serratia marcescens = assay: Reference agar dilution MIC, SENTRY US isolates; assay type: cell-based; settings: randomly selected
Method: as §1

S. agalactiae = assay: Reference agar dilution MIC, SENTRY US isolates; assay type: cell-based; settings: Streptococcus agalactiae
Method: as §1

Staphylococcus aureus = assay: Reference agar dilution MIC, SENTRY US isolates; assay type: cell-based
Method: as §1

Pseudomonas aeruginosa = assay: Reference agar dilution MIC, SENTRY US isolates; assay type: cell-based
Method: as §1

E. faecium = assay: Reference agar dilution MIC, SENTRY US isolates; assay type: cell-based; settings: FDA oral breakpoints
Method: as §1

Enterobacteriaceae [4] = assay: Reference agar dilution MIC, SENTRY US isolates; assay type: cell-based; settings: selected Enterobacteriaceae
Method: as §1

Citrobacter koseri = assay: Reference agar dilution MIC, SENTRY US isolates; assay type: cell-based; settings: randomly selected
Method: as §1

Escherichia coli = assay: Reference agar dilution MIC, SENTRY US isolates; assay type: cell-based; settings: randomly selected
Method: as §1

[5] = test system: coagulase-negative staphylococci (CoNS) excluding S. saprophyticus; assay: Reference agar dilution MIC, SENTRY US isolates; assay type: cell-based
Method: as §1

C. freundii complex = assay: Reference agar dilution MIC, SENTRY US isolates; assay type: cell-based; settings: Citrobacter freundii; randomly selected
Method: as §1

Proteus mirabilis = assay: Reference agar dilution MIC, SENTRY US isolates; assay type: cell-based; settings: randomly selected
Method: as §1

S. saprophyticus = assay: Reference agar dilution MIC, SENTRY US isolates; assay type: cell-based; settings: Staphylococcus saprophyticus
Method: as §1

E. cloacae complex = assay: Reference agar dilution MIC, SENTRY US isolates; assay type: cell-based; settings: Enterobacter cloacae; randomly selected
Method: as §1

[6] = test system: Meropenem-NS PSA (MDR PSA isolates); assay: FOF MIC by ETEST; assay type: cell-based; settings: Pseudomonas aeruginosa
Method: Meropenem-NS PSA obtained from US hospitals were studied. MICs of all antibiotics except FOF were previously determined by broth microdilution; FOF MIC was determined by ETEST® antibiotic gradient diffusion strip prior to conducting synergy assessments between FOF and aztreonam (ATM), cefepime (FEP), ceftazidime (CAZ), meropenem (MEM), piperacillin/tazobactam (TZP), and tobramycin (TOB). […] Of note, Liofilchem® MIC Test Strip was used for TZP due to commercial availability. Only organisms that were NS to the 2nd drug were assessed for synergy.

SMILES: C[C@@H]1O[C@@H]1P(=O)(O)O [FOS, fosfomycin]
- MIC90 (Enterobacteriaceae [1]): 16 mgL
- increase in bacterial growth ([2]; FOS 0.5, 1 and 2×MIC, by 24 h): approximately 2 log10
- log10 reduction in bacterial growth (CFU) ([2]; FOS 2×MIC, by 4 h): > 3 log10
- killing activity ([2]; FOS alone): bactericidal
- MIC50 [3]: 128 µg/mL (≈ 927 µM)
- MIC90 [3]: 256 µg/mL (≈ 1850 µM)
- % S (E. faecalis): 99.0%
- % intermediate (E. faecalis): 1.0%
- % of isolates ≤64 μg/mL (Klebsiella pneumoniae): 97.0%
- MIC50 (Klebsiella pneumoniae; Klebsiella pneumoniae): 4 µg/mL (≈ 29 µM)
- MIC90 (Klebsiella pneumoniae; Klebsiella pneumoniae): 16 µg/mL (≈ 116 µM)
- MIC50 (Enterobacter aerogenes): 8 µg/mL (≈ 57.9 µM)
- MIC90 (Enterobacter aerogenes): 16 µg/mL (≈ 116 µM)
- MIC50 (Serratia marcescens): 8 µg/mL (≈ 57.9 µM)
- MIC90 (Serratia marcescens): 16 µg/mL (≈ 116 µM)
- MIC50 (S. agalactiae): 8 µg/mL (≈ 57.9 µM)
- MIC90 (S. agalactiae): 64 µg/mL (≈ 464 µM)
- MIC50 (Staphylococcus aureus): 4 µg/mL (≈ 29 µM)
- MIC90 (Staphylococcus aureus): 8 µg/mL (≈ 57.9 µM)
- MIC50 (Pseudomonas aeruginosa): 64 µg/mL (≈ 464 µM)
- MIC90 (Pseudomonas aeruginosa): 128 µg/mL (≈ 927 µM)
- % S (E. faecium): 79.8%
- % intermediate (E. faecium): 19.2%
- MIC50 (Enterobacteriaceae [4]): 4 µg/mL (≈ 29 µM)
- MIC50 (Citrobacter koseri): 1 µg/mL (≈ 7.24 µM)
- MIC90 (Citrobacter koseri): 1 µg/mL (≈ 7.24 µM)
- MIC50 (Escherichia coli; Escherichia coli): 0.5 µg/mL (≈ 3.62 µM)
- MIC90 (Escherichia coli; Escherichia coli): 1 µg/mL (≈ 7.24 µM)
- % S to FOS (Escherichia coli; FDA oral breakpoints): 100.0%
- MIC50 [5]: 8 µg/mL (≈ 57.9 µM)
- MIC90 ([5]; Staphylococcus saprophyticus): 64 µg/mL (≈ 464 µM)
- MIC50 (C. freundii complex): 0.5 µg/mL (≈ 3.62 µM)
- MIC90 (C. freundii complex): 1 µg/mL (≈ 7.24 µM)
- MIC50 (Proteus mirabilis): 1 µg/mL (≈ 7.24 µM)
- MIC90 (Proteus mirabilis): 8 µg/mL (≈ 57.9 µM)
- MIC50 (S. saprophyticus): 128 µg/mL (≈ 927 µM)
- MIC90 (S. saprophyticus): > 256 µg/mL
- MIC50 (E. cloacae complex): 8 µg/mL (≈ 57.9 µM)
- MIC90 (E. cloacae complex): 64 µg/mL (≈ 464 µM)
- MIC90 [6]: > 1020 µg/mL
- MIC50 ([6]; 87 isolates, ETEST): 64 µg/mL
